Experimental data reported in patent US20250134890A1, “ANTIMALARIAL HEXAHYDROPYRIMIDINE ANALOGUES” (UCB BIOPHARMA SRL, priority 2022, published 2025).
pIC50: −log10 of the molar value. Structures can show the parent of a compound that is named as a salt. Where two headings read alike, the source gives them in different places.

Tested on: Plasmodium falciparum: 3D7 strain
Assay: P. falciparum 3D7 asexual blood stage assay (SYBR green readout)
Type: cell-based
Details: Plasmodium falciparum, P. falciparum 3D7 in human erythrocytes, 72 h incubation, SYBR green fluorescence
Summary of the method: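 3D7-infected erythrocytes (5% haematocrit, 0.5% parasitaemia) were exposed 72 h at 37 °C under 1% O2/3% CO2 to a 20-point titration (50,000-15 nM final, 0.5% DMSO). Parasite DNA was read by SYBR green fluorescence after overnight lysis. Percent inhibition was set against mefloquine and DMSO, and EC50 came from a biphasic two-site fit.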

Molecule COc1cc(-c2cccc([C@]3(C)CC(=O)N([C@H]4CCO[C@@H](C)C4)C(=N)N3)c2Cl)ccn1 [Example 59, (6S)-6-[2-Chloro-3-(2-methoxy-pyridin-4-yl)phenyl]-2-imino-6-methyl-3-[(2S,4S)-2-methyl-tetrahydropyran-4-yl]hexahydro-pyrimidin-4-one trifluoroacetic acid salt] has a pIC50 (3D7, Erythrocyte, 72 h) of 7.21.
In the case of C[C@H]1C[C@@H](N2C(=N)N[C@](C)(c3cccc(-c4ccc(C#N)cc4)c3Cl)CC2=O)CCO1 [Example 60, 4-(2-Chloro-3-{(4S)-2-imino-4-methyl-1-[(2S,4S)-2-methyl-tetrahydropyran-4-yl]-6-oxo-hexahydropyrimidin-4-yl}phenyl)-benzonitrile trifluoroacetic acid salt], the pIC50 (3D7, Erythrocyte, 72 h) was 6.53.
CN1CCC(N2C(=N)N[C@](C)(c3cccc(-c4cccc(Cl)c4)c3Cl)CC2=O)CC1 [Example 90, (6S)-6-[2-Chloro-3-(3-chloro-phenyl)phenyl]-2-imino-6-methyl-3-(1-methylpiperidin-4-yl)-hexahydropyrimidin-4-one] was tested, and the pIC50 (Erythrocyte, read-out: IC50) was 6.91.
In the case of CN1CCC(N2C(=N)N[C@](C)(c3cccc(-c4ccc(OC(F)(F)F)cc4Cl)c3Cl)CC2=O)CC1 [Example 91, (6S)-6-{2-Chloro-3-[2-chloro-4-(trifluoromethoxy)phenyl]phenyl}-2-imino-6-methyl-3-(1-methyl-piperidin-4-yl)hexahydropyrimidin-4-one], the pIC50 (Erythrocyte, read-out: IC50) was 5.19.
Work on CN1CCC(N2C(=N)N[C@](C)(c3cccc(-c4cc(Cl)ccc4Cl)c3Cl)CC2=O)CC1 [Example 92, (6S)-6-[2-Chloro-3-(2,5-dichloro-phenyl)phenyl]-2-imino-6-methyl-3-(1-methylpiperidin-4-yl)-hexahydropyrimidin-4-one] yielded a pIC50 (Erythrocyte, read-out: IC50) of 7.30.
Molecule CN1CCC(N2C(=N)N[C@](C)(c3cccc(-c4ccc(F)cc4F)c3Cl)CC2=O)CC1 [Example 93, (6S)-6-[2-Chloro-3-(2,4-difluoro-phenyl)phenyl]-2-imino-6-methyl-3-(1-methylpiperidin-4-yl)-hexahydropyrimidin-4-one] has a pIC50 (Erythrocyte, read-out: IC50) of 6.95.
Molecule C[C@H]1C[C@@H](N2C(=N)N[C@](C)(c3cccc(-c4cn(-c5cc(F)c(F)cc5F)nn4)c3Cl)CC2=O)CCO1 [Example 109, (6S)-6-{2-Chloro-3-[1-(2,4,5-trifluorophenyl)-1,2,3-triazol-4-yl]-phenyl}-2-imino-6-methyl-3-[(2S,4S)-2-methyltetrahydropyran-4-yl]hexahydropyrimidin-4-one hydrochloride] has a pIC50 (3D7, Erythrocyte, 72 h) of 6.77.
C[C@H]1C[C@@H](N2C(=N)N[C@](C)(c3cccc(-c4cn(CC(F)(F)F)nn4)c3Cl)CC2=O)CCO1 [Example 110, (6S)-6-{2-Chloro-3-[1-(2,2,2-trifluoroethyl)-1,2,3-triazol-4-yl]-phenyl}-2-imino-6-methyl-3-[(2S,4S)-2-methyltetrahydropyran-4-yl]hexahydropyrimidin-4-one hydrochloride] was tested, and the pIC50 (3D7, Erythrocyte, 72 h) was 7.89.
C[C@H]1C[C@@H](N2C(=N)N[C@](C)(c3cccc(-c4cn(-c5cccc(F)c5)nn4)c3Cl)CC2=O)CCO1 [Example 111, (6S)-6-{2-Chloro-3-[1-(3-fluoro-phenyl)-1,2,3-triazol-4-yl]phenyl}-2-imino-6-methyl-3-[(2S,4S)-2-methyltetrahydropyran-4-yl]-hexahydropyrimidin-4-one hydrochloride] showed a pIC50 (3D7, Erythrocyte, 72 h) of 7.18.
C[C@H]1C[C@@H](N2C(=N)N[C@](C)(c3cccc(-c4cn(CCN(C)C)nn4)c3Cl)CC2=O)CCO1 [Example 114, (6S)-6-(2-Chloro-3-{1-[2-(dimethylamino)ethyl]-1,2,3-triazol-4-yl}phenyl)-2-imino-6-methyl-3-[(2S,4S)-2-methyl-tetrahydropyran-4-yl]hexahydro-pyrimidin-4-one trifluoroacetic acid salt] was tested, and the pIC50 (3D7, Erythrocyte, 72 h) was 6.03.
With C[C@H]1C[C@@H](N2C(=N)N[C@](C)(c3cccc(-c4cn([C@@H](C)c5cccnc5)nn4)c3Cl)CC2=O)CCO1 [Example 115, (6S)-6-(2-Chloro-3-{1-[(1S)-1-(pyridin-3-yl)ethyl]-1,2,3-triazol-4-yl}phenyl)-2-imino-6-methyl-3-[(2S,4S)-2-methyltetrahydropyran-4-yl]hexahydropyrimidin-4-one trifluoroacetic acid salt] the pIC50 (3D7, Erythrocyte, 72 h) was 6.68.
Molecule C[C@H]1C[C@@H](N2C(=N)N[C@](C)(c3cccc(-c4cn(CC5CC(F)(F)C5)nn4)c3Cl)CC2=O)CCO1 [Example 116, (6S)-6-(2-Chloro-3-{1-[(3,3-difluorocyclobutyl)methyl]-1,2,3-triazol-4-yl}phenyl)-2-imino-6-methyl-3-[(2S,4S)-2-methyl-tetrahydropyran-4-yl]hexahydro-pyrimidin-4-one trifluoroacetic acid salt] has a pIC50 (3D7, Erythrocyte, 72 h) of 6.68.
With C[C@H]1C[C@@H](N2C(=N)N[C@](C)(c3cccc(-c4cn(Cc5cccnc5)nn4)c3Cl)CC2=O)CCO1 [Example 117, (6S)-6-{2-Chloro-3-[1-(pyridin-3-ylmethyl)-1,2,3-triazol-4-yl]-phenyl}-2-imino-6-methyl-3-[(2S,4S)-2-methyltetrahydropyran-4-yl]hexahydropyrimidin-4-one trifluoroacetic acid salt] the pIC50 (3D7, Erythrocyte, 72 h) was 6.43.
Molecule C[C@H]1C[C@@H](N2C(=N)N[C@](C)(c3cccc(-c4cn(CCN5CCCC5)nn4)c3Cl)CC2=O)CCO1 [Example 118, (6S)-6-(2-Chloro-3-{1-[2-(pyrrolidin-1-yl)ethyl]-1,2,3-triazol-4-yl}phenyl)-2-imino-6-methyl-3-[(2S,4S)-2-methyl-tetrahydropyran-4-yl]hexahydro-pyrimidin-4-one trifluoroacetic acid salt] has a pIC50 (3D7, Erythrocyte, 72 h) of 6.00.
Work on C[C@H]1C[C@@H](N2C(=N)N[C@](C)(c3cccc(-c4cn(-c5ccncc5)nn4)c3Cl)CC2=O)CCO1 [Example 119, (6S)-6-{2-Chloro-3-[1-(pyridin-4-yl)-1,2,3-triazol-4-yl]phenyl}-2-imino-6-methyl-3-[(2S,4S)-2-methyltetrahydropyran-4-yl]-hexahydropyrimidin-4-one trifluoroacetic acid salt] yielded a pIC50 (3D7, Erythrocyte, 72 h) of 6.53.
C[C@H]1C[C@@H](N2C(=N)N[C@](C)(c3cccc(-c4cn(Cc5ccncc5)nn4)c3Cl)CC2=O)CCO1 [Example 120, (6S)-6-{2-Chloro-3-[1-(pyridin-4-ylmethyl)-1,2,3-triazol-4-yl]-phenyl}-2-imino-6-methyl-3-[(2S,4S)-2-methyltetrahydropyran-4-yl]hexahydropyrimidin-4-one trifluoroacetic acid salt] showed a pIC50 (3D7, Erythrocyte, 72 h) of 6.29.
Work on C=C(c1ccccc1)n1cc(-c2cccc([C@]3(C)CC(=O)N([C@H]4CCO[C@@H](C)C4)C(=N)N3)c2Cl)nn1 [Example 121, (6S)-6-{2-Chloro-3-[1-(1-phenyl-vinyl)-1,2,3-triazol-4-yl]phenyl}-2-imino-6-methyl-3-[(2S,4S)-2-methyltetrahydropyran-4-yl]-hexahydropyrimidin-4-one trifluoroacetic acid salt] yielded a pIC50 (3D7, Erythrocyte, 72 h) of 6.73.
For C[C@H]1C[C@@H](N2C(=N)N[C@](C)(c3cccc(-c4cn(C5CCC5)nn4)c3Cl)CC2=O)CCO1 [Example 122, (6S)-6-[2-Chloro-3-(1-cyclobutyl-1,2,3-triazol-4-yl)phenyl]-2-imino-6-methyl-3-[(2S,4S)-2-methyl-tetrahydropyran-4-yl]hexahydro-pyrimidin-4-one trifluoroacetic acid salt], the pIC50 (3D7, Erythrocyte, 72 h) was 7.00.
COCCn1cc(-c2cccc([C@]3(C)CC(=O)N([C@H]4CCO[C@@H](C)C4)C(=N)N3)c2Cl)nn1 [Example 123, (6S)-6-{2-Chloro-3-[1-(2-methoxy-ethyl)-1,2,3-triazol-4-yl]phenyl}-2-imino-6-methyl-3-[(2S,4S)-2-methyltetrahydropyran-4-yl]-hexahydropyrimidin-4-one trifluoroacetic acid salt] was tested, and the pIC50 (3D7, Erythrocyte, 72 h) was 6.27.
In the case of C[C@H]1C[C@@H](N2C(=N)N[C@](C)(c3cccc(-c4cn(Cc5ccccc5)nn4)c3Cl)CC2=O)CCO1 [Example 124, (6S)-6-[3-(1-Benzyl-1,2,3-triazol-4-yl)-2-chlorophenyl]-2-imino-6-methyl-3-[(2S,4S)-2-methyl-tetrahydropyran-4-yl]hexahydro-pyrimidin-4-one trifluoroacetic acid salt], the pIC50 (3D7, Erythrocyte, 72 h) was 6.67.
For CC(n1cc(-c2cccc([C@]3(C)CC(=O)N([C@H]4CCO[C@@H](C)C4)C(=N)N3)c2Cl)nn1)C12CC(CO1)C2 (stereo partly drawn) [Example 125, (6S)-6-(2-Chloro-3-{1-[1-(2-oxa-bicyclo[2.1.1]hexan-1-yl)ethyl]-1,2,3-triazol-4-yl}phenyl)-2-imino-6-methyl-3-[(2S,4S)-2-methyl-tetrahydropyran-4-yl]hexahydro-pyrimidin-4-one trifluoroacetic acid salt], the pIC50 (3D7, Erythrocyte, 72 h) was 6.66.
C[C@H]1C[C@@H](N2C(=N)N[C@](C)(c3cccc(-c4cn(-c5ccccc5)nn4)c3Cl)CC2=O)CCO1 [Example 126, (6S)-6-[2-Chloro-3-(1-phenyl-1,2,3-triazol-4-yl)phenyl]-2-imino-6-methyl-3-[(2S,4S)-2-methyl-tetrahydropyran-4-yl]hexahydro-pyrimidin-4-one trifluoroacetic acid salt] showed a pIC50 (3D7, Erythrocyte, 72 h) of 8.30.
CCCCn1cc(-c2cccc([C@]3(C)CC(=O)N([C@H]4CCO[C@@H](C)C4)C(=N)N3)c2Cl)nn1 [Example 127, (6S)-6-[3-(1-Butyl-1,2,3-triazol-4-yl)-2-chlorophenyl]-2-imino-6-methyl-3-[(2S,4S)-2-methyl-tetrahydropyran-4-yl]hexahydro-pyrimidin-4-one trifluoroacetic acid salt] gave a pIC50 (3D7, Erythrocyte, 72 h) of 7.00.
Work on C[C@H](c1cccnc1)n1cc(-c2cccc([C@]3(C)CC(=O)N([C@H]4CCO[C@@H](C)C4)C(=N)N3)c2Cl)nn1 [Example 128, (6S)-6-(2-Chloro-3-{1-[(1R)-1-(pyridin-3-yl)ethyl]-1,2,3-triazol-4-yl}phenyl)-2-imino-6-methyl-3-[(2S,4S)-2-methyltetrahydropyran-4-yl]hexahydropyrimidin-4-one trifluoroacetic acid salt] yielded a pIC50 (3D7, Erythrocyte, 72 h) of 6.95.
